Source: PMC4534190, “Characterization of the MUC1-C Cytoplasmic Domain as a Cancer Target” (PLoS ONE, 2015)
Values belong to the molecule of their own block, whether it stands above or below them. Non-standard residues stand in square brackets, D forms with d. Residues, ends and D or L forms follow the SMILES beside them. No end group written: not given here. *: point of attachment. FITC = O=C1OC2(c3ccc(O)cc3Oc3cc(O)ccc32)c2ccc(NC(=S)*)cc21

Key:
GST-MUC1-CD(AQA) = test: Binding to GST-MUC1-CD(AQA) mutant; settings: CQC motif mutated to AQA; only background fluorescence; data not shown; FITC-labeled peptide, 1 h at 37°C
Procedure: Binding affinities of FITC-GO-202 and FITC-GO-203 were determined by the saturation binding method. In short, 96-well glutathione- or nickel-coated plates (Thermo Fisher, Waltham, MA) were incubated with 150 μl of PBS buffer containing 21.45 μg/ml of GST-MUC1-CD, GST-MUC1-CD(AQA) or His-MUC1-CD overnight at 4°C followed by washing with 50 mM Tris and 150 mM NaCl containing 0.1% Tween-20 (TBST), and blocking with 0.5% BSA in TBS. The plates were then washed 3 times with TBST. FITC-GO-202 or FITC-GO-203 was added to the wells at 0.19 μM to 25 μM. Nonspecific binding was determined in the presence of GST alone. Plates were incubated for 1 h at 37°C on a shaker followed by washing 3 times with binding buffer. Fluorescence intensity was determined on an Infinite M1000 PRO Tecan Microplate Reader (Tecan, NC) with excitation at 490 nm and emission at 525 nm. GraphPad Prism 4.0 Software (San Diego, CA) was used to calculate the equilibrium dissociation constant (Kd) by a non-linear regression method.
(§1) Vectors expressing GST-MUC1-CD, GST-MUC1-CD(AQA) and His-MUC1-CD, GFP-MUC1-CD and FLAG-MUC1-CD have been described. His-tagged MUC1-CD (rat and dog) were cloned in pET28a vector (Clontech, Mountain View, CA) and expressed in E. coli BL21(DE3).

endogenous MUC1-C [1] = test: Binding to endogenous MUC1-C in H1975 cells, coimmunoprecipitation; assay type: cell-based, human; settings: 5 μM FITC-GO-203 overnight, non-reducing
Procedure: (§2) Human ZR-75-1 breast cancer (ATTC) and H1975 lung cancer (ATTC) cell lines were grown in RPMI 1640 supplemented with 10% heat-inactivated fetal bovine serum (HI-FBS), 100 units/ml penicillin, and 100 μg/ml streptomycin. 293T cells were grown in DMEM with 10% HI-FBS, antibiotics, and 2 mmol/L L-glutamine. Cells were treated with FITC conjugated-GO-202 (FITC-GO-202), FITC-GO-203 or unconjugated GO-203 synthesized by the MIT Biopolymer Laboratory (Cambridge, MA) and AnaSpec, Inc (San Jose, CA). The p3XFLAG-CMV-10 (Sigma, St. Louis, MO), pEGFP-C1 and pDsRed-Monomer-N1 (Clontech, Mountain View, CA) vectors were used for transfection of rat and dog MUC1-CD and full length human MUC1 in 293T cells in the presence of Lipofectamine 2000 (Life Technologies, Grand Island, NY).
(§3) Cell lysates were prepared as described. Soluble proteins were immunoprecipitated with anti-FLAG (Sigma, St. Louis, MO), anti-MUC1-C (Thermo Fisher Scientific, Waltham, MA) or a control IgG. The precipitates and lysates not subjected to immunoprecipitation were immunoblotted with anti-MUC1-C, anti-GFP (Abcam, Cambridge, MA), anti-FLAG and anti-FITC (Life Technologies, Grand Island, NY). Reactivity was detected with horseradish peroxidase-conjugated secondary antibodies and chemiluminescence.

DsRedMN1-MUC1 = test: Localization in 293T cells expressing DsRedMN1-MUC1, immunofluorescence microscopy; assay type: cell-based, human; settings: 5 μM FITC-GO-203, 3 h
Procedure: as §2
(§4) 293T cells were transfected with MUC1-pDsRed-Monomer-N1 in the presence of Lipofectamine 2000 for 48 h. The cells were then incubated with FITC-GO-203 for 3 h and examined using a Nikon-deconvolution wide-field epifluorescence system with a 100x oil immersion objective. Images were captured using NIS-element software (Nikon) and analyzed by ImageJ software.

endogenous MUC1-C [2] = test: Binding to endogenous MUC1-C in ZR-75-1 cells, coimmunoprecipitation; assay type: cell-based, human; settings: 5 μM FITC-GO-203 overnight, non-reducing
Procedure: as §2, §3

293T cells = test: Localization in untransfected 293T cells, immunofluorescence microscopy; assay type: cell-based; settings: FITC-GO-203 alone, 5 μM, 3 h
Procedure: as §2, §4

[3] = test system: human GFP-MUC1-CD and FLAG-MUC1-CD; test: MUC1-CD homodimerization in 293T cells, human, coimmunoprecipitation; assay type: cell-based; settings: 5 μM each day for 3 days, anti-FLAG precipitation
Procedure: as §2, §3

[4] = test system: MUC1-C-expressing carcinoma and leukemia cells; set-up: method as in PMID 21421804, PMID 23867470; settings: ref [19],[32]; cited from earlier work
human His-MUC1-CD = test: In vitro dimerization of human His-MUC1-CD; assay type: biochemical; settings: CP-2 or GO-203 150 μM; 1 h at room temperature; non-reducing gel, anti-MUC1-C immunoblot
Procedure: as §1
(§5) Purified His-MUC1-CD was incubated in PBS or increasing amounts of GO-203 for 1 h at room temperature as described. Proteins were then separated in non-reducing polyacrylamide gels and analyzed by immunoblotting.

[5] = test system: rat GFP-MUC1-CD and FLAG-MUC1-CD; test: MUC1-CD homodimerization in 293T cells, rat, coimmunoprecipitation; assay type: cell-based; settings: 5 μM each day for 3 days, anti-FLAG precipitation
Procedure: as §2, §3

[6] = test system: dog GFP-MUC1-CD and FLAG-MUC1-CD; test: MUC1-CD homodimerization in 293T cells, dog, coimmunoprecipitation; assay type: cell-based; settings: 5 μM each day for 3 days, anti-FLAG precipitation
Procedure: as §2, §3

His-MUC1-CD (dog) (dog) = test: non-reducing PAGE with immunoblot; purified His-MUC1-CD in PBS (pH 7.4) or with GO-203 (50, 150, 450 μM) for 1 h at room temperature; immunoblot with anti-MUC1-C
[7] = biological target: His-MUC1-CD (human) (human); test: as above
His-MUC1-CD (rat) (rat) = test: as above
GST = test: MS-bridge analysis of disulfide linkage, MALDI-TOF-MS, GST control; assay type: binding; settings: tryptic digest of GST+GO-203, dimer peak not observed
Procedure: (§6) Binding experiments with MUC1-CD and GO-203 were performed as described. Complexes were eluted from the glutathione beads, dialyzed and concentrated using amicon ultra centrifugal filters (Millipore, Billerica, MA). The complexes were then subjected to non-reducing electrophoresis and stained with Coomassie Blue. Protein bands were excised and analyzed by MALDI-TOF-MS as described. Briefly, gels were cut into small, uniform pieces; the gel pieces were dehydrated with acetonitrile and then rehydrated in 100 mM ammonium bicarbonate followed by 2 washing and drying cycles with ammonium bicarbonate and acetonitrile, respectively. After complete dehydration, gel pieces were suspended in 12.5 ng/μl trypsin in 50 mM ammonium bicarbonate (50 μl). In-gel digestion was carried out at 37°C for 10–12 h and the samples were acidified with 50 μl of 0.5% TFA. Thirty μl of this mixture was desalted by C-18 containing Zip-Tip (Millipore, Billerica, MA). Trypsin-digested peptides were analyzed by MALDI-TOF-MS (ABI-4800). MALDI-TOF-MS analyses were performed using a Reflector method that was optimized for acquisition for the mass range of 700–3500 amu. Data was collected and analyzed using the data Explorer software package (AB-Sciex, Framingham, MA) and MASCOT (ver.2.0.04, Matrix Science, Boston, MA). MS-bridge analysis was done using Protein Prospector (ver.4.27.2 basic and ver.5.0, UCSF). […]

GST-MUC1-CD = biological target: T1, GST-MUC1-CD (Homo sapiens, UniProt P15941); test: MS-bridge analysis of disulfide linkage, MALDI-TOF-MS; assay type: binding; settings: incubation with purified GST-MUC1-CD, tryptic digest, single disulfide bridge at the CQC motif
T1 construct: made in house
T1 sequence (P15941 1182-1255 limits assumed): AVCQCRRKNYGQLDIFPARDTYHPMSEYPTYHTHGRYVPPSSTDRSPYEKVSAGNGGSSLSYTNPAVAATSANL
Procedure: as §6

dog His-MUC1-CD = test: In vitro dimerization of dog His-MUC1-CD; assay type: biochemical; settings: GO-203 50, 150 and 450 μM; 1 h at room temperature; non-reducing gel, anti-MUC1-C immunoblot
Procedure: as §1, §5

rat His-MUC1-CD = test: In vitro dimerization of rat His-MUC1-CD; assay type: biochemical; settings: GO-203 50, 150 and 450 μM; 1 h at room temperature; pH 7.4; non-reducing gel, anti-MUC1-C immunoblot
Procedure: as §1, §5

GST-MUC1-CD (human) = test: saturation binding of FITC-peptide to protein on coated plates (fluorescence); GST-MUC1-CD held on glutathione-coated 96-well plates; FITC-peptide 0.19 μM to 25 μM, 1 h at 37°C; nonspecific binding from GST alone; apparent Kd by non-linear regression
[8] = biological target: His-MUC1-CD (human) (human); test: saturation binding of FITC-peptide to protein on coated plates (fluorescence); His-MUC1-CD held on nickel-coated 96-well plates; FITC-GO-203 0.19 μM to 25 μM, 1 h at 37°C; apparent Kd by non-linear regression

Molecule: N=C(N)NCCC[C@@H](NC(=O)[C@@H](CCCNC(=N)N)NC(=O)[C@@H](CS)NC(=O)[C@@H](CCC(N)=O)NC(=O)[C@@H](CS)NC(=O)[C@@H](CCCNC(=N)N)NC(=O)[C@@H](CCCNC(=N)N)NC(=O)[C@@H](CCCNC(=N)N)NC(=O)[C@@H](CCCNC(=N)N)NC(=O)[C@@H](CCCNC(=N)N)NC(=O)[C@@H](CCCNC(=N)N)NC(=O)[C@@H](CCCNC(=N)N)NC(=O)[C@@H](CCCNC(=N)N)NC(=O)[C@@H](CCCNC(=N)N)NC(=S)Nc1ccc2c(c1)C(=O)OC21c2ccc(O)cc2Oc2cc(O)ccc21)C(=O)N[C@H](CCCCN)C(=O)N[C@H](CC(N)=O)C(=O)O [FITC-GO-203] ({FITC}-[dR][dR][dR][dR][dR][dR][dR][dR][dR][dC][dQ][dC][dR][dR][dK][dN]-OH; N-terminus and C-terminus assumed)
interaction with GST-MUC1-CD(AQA) (GST-MUC1-CD(AQA)): no interaction was evident | interaction with MUC1-C monomeric and oligomeric forms (endogenous MUC1-C [1]; H1975 cells, entire immunoblots): interacts with the different MUC1-C monomeric and oligomeric forms | association with endogenous MUC1-C (endogenous MUC1-C [1]; H1975 lung cancer cells, anti-MUC1-C precipitates, anti-FITC immunoblot): associates with endogenous MUC1-C | co-localization of DsRed (MUC1) and FITC signals (DsRedMN1-MUC1; 293T cells expressing DsRedMN1-MUC1): co-localization of the DSRed and FITC signals (Red+Green→Yellow) was observed along the membrane | FITC staining in cells expressing MUC1 compared to the MUC1-null setting (DsRedMN1-MUC1; 293T cells): brighter | complex formation with endogenous MUC1-C (endogenous MUC1-C [2]; ZR-75-1 breast cancer cells, anti-MUC1-C precipitates, anti-FITC immunoblot): forms complexes with MUC1-C | interaction with MUC1-C monomeric and oligomeric forms (endogenous MUC1-C [2]; ZR-75-1 cells, entire immunoblots): interacts with the different MUC1-C monomeric and oligomeric forms | localization of FITC signals (293T cells): localized along the membrane and in the cytosol

Molecule: AQARRKN [CP-2, control peptide, which includes AQARRKN, reference compound]
inhibition of human MUC1-CD homodimerization in cells [3]: no effect | inhibition of survival of MUC1-C-expressing carcinoma and leukemia cells [4]: not CP-2, inhibits the survival of MUC1-C-expressing carcinoma and leukemia cells | inhibition of human His-MUC1-CD homodimerization (human His-MUC1-CD): no effect | inhibition of rat FLAG-MUC1-CD/GFP-MUC1-CD complexes in cells [5]: no apparent effect | inhibition of dog MUC1-CD homodimerization in cells [6]: no effect

stoichiometry N (His-MUC1-CD (dog) (dog)): 2
Molecule: His-MUC1-CD (dog) (domain or fragment)

stoichiometry N [7]: 2
Molecule: His-MUC1-CD (human) (domain or fragment)

stoichiometry N (His-MUC1-CD (rat) (rat)): 2
Molecule: His-MUC1-CD (rat) (domain or fragment)

Molecule: [R]9-CQCRRKN [GO-203, peptide in which the poly-Arg cell-penetrating domain is linked to CQCRRKN (D-amino acids)]
formation of disulfide bridges with GST (GST): not with GST | inhibition of human MUC1-CD homodimerization in cells [3]: inhibition of MUC1-CD homodimerization | inhibition of survival of MUC1-C-expressing carcinoma and leukemia cells [4]: inhibits the survival of MUC1-C-expressing carcinoma and leukemia cells | inhibition of human His-MUC1-CD homodimerization (human His-MUC1-CD): effectively inhibited | inhibition of rat FLAG-MUC1-CD/GFP-MUC1-CD complexes in cells [5]: inhibition of the FLAG-MUC1-CD/GFP-MUC1-CD complexes | formation of disulfide bridges with MUC1-CD (GST-MUC1-CD): forms disulfide bridges specifically with MUC1-CD | inhibition of dog His-MUC1-CD homodimerization (dog His-MUC1-CD): effectively inhibited | inhibition of rat His-MUC1-CD homodimerization (rat His-MUC1-CD): decreased homodimerization | inhibition of dog MUC1-CD homodimerization in cells [6]: inhibition of MUC1-CD homodimerization

Kd (GST-MUC1-CD (human)): 880 nM
B1: FITC-GO-202 (peptide)
peptide: {FITC}-RRRRRRRRRCQCRRKN
modifications: cysteine pairing not given here

Kd (GST-MUC1-CD (human)): 630 nM | Kd [8]: 860 nM
B2: FITC-GO-203 (peptide)
peptide: {FITC}-[dR][dR][dR][dR][dR][dR][dR][dR][dR][dC][dQ][dC][dR][dR][dK][dN]
modifications: cysteine pairing not given here
